Source: patent US6998240B2, “Screen for selective inhibitors or activators of Smad protein function” (Wisconsin Alumni Research Foundation, priority 2001, dated 2006)
Residues, ends and D or L forms follow the SMILES beside them.

Experiments:
Smad2-P [1] = molecular target: T1, Smad2-P (Homo sapiens, UniProt Q15796); assay: HTRF assay of biotin-FAST peptide binding to Smad2-P (competition)
T1 construct: Smad2; 1–467; pBlueBac; His; made in house; host or cells: Sf9 insect cells (baculovirus), co-infected with virus for membrane-targeted human Alk5 T204D
Text: (§1) To establish HTRF assays for Smad protein interactions, we have used reagents from Wallac-Perkin Elmer and Packard that include Europium-cryptate coupled to α-His epitope tag antibody, α-GST antibody or Streptavidin. As acceptor fluorophores we have used allophycocyanin (Packard's XL665) coupled to Streptavidin or direct labeling of GST-fusion protein with IC5 (Dojindo). Reagents are mixed in a 50 microliter volume in the wells of a 384 Black non-treated microwell plate (Corning) and HTRF detected in a Wallac Victor V multimode plate reader. The reader detects emission at 615 nm from the Europium chelate donor and at 665 nm from the APC or IC5 acceptor. Background, cross-talk and high FRET wells can be indicated on the plate map to allow the machine to compute a normalized value as a ratio Rn=(ET/D) Dmax where ET=A−BI−(C×D). • A—Fluorescence at 665 nm • BI—Blank (buffer only) at 665 nm • D—Fluorescence at 615 nm • C—Cross-talk correction value calculated from wells containing only donor fluorophore • (from “Quench Correction for LANCE TR-FRET” by Perkin-Elmer Wallace)
(§2) Over the past several months we have developed three HTRF assays for Smad binding interactions. All three assays use a Eu-chelate α-His epitope tag antibody as the donor. The antibody recognizes the hexahistidine epitope tag on the Smad proteins produced in the baculovirus expression system described above. As acceptors, we have used Streptavidin conjugated to allophycocyanin (Packard) that binds to biotinylated peptides. The peptides are synthesized to comprise the Smad interaction domain motif from human FAST or c-Jun (FIG. 3). The FAST 24-mer amino acid sequence is based on the homology between FAST, Mixer and Milk reported by Germain and colleagues (Germain, S., et al., supra, 2000). The24-mer C-JUN sequence is based on studies using deletions and gene fragments to define the Smad interaction motif (Zhang, Y., et al., supra, 1998; Liberati, N. T. et al., Proc. Natl. Acad. Sci. USA 96:4844–9, 1999). We also have developed an HTRF assay using IC5-GST-CBP, a fusion protein comprising the Smad interaction domain motif from CBP (a generous gift of Dr. Yigong Shi, Princeton University).
(§3) The assays are done in a 50 μl volume in the well of a 384-well plate. The assay buffer, as recommended by Packard for their HTRF reagents is 50 mM K-Hepes pH 7.0, 400 mM KF and 0.1% BSA. The high concentration of KF is recommended for the Eu(K) reagents from Packard. […] We have also optimized through many titrations the amount of Smad protein (220 ng/well, ˜4 pmoles per well of monomer), the concentration of biotinylated peptide (1 uMolar for FAST and C-JUN), the amount of Eu-anti-His tag antibody (36 ng/well) and the amount of Streptactin-APC (0.5 μg/well).
We used the FAST-SmadP HTRF assay described above. […] After 1 hr at room temperature, Streptavidin-APC was added to each well and 30 minutes later the fluorescence emissions at 615 nm and 665 nm were read in a PE-Wallac Victor V.

Smad2-P [2] = molecular target: T1, Smad2-P; assay: HTRF assay of IC5-GST-CBP binding to phosphorylated Smad2
Text: as §1, §2, §3
Table 5 contains data from using the GST-CBP fusion protein that is covalently coupled to the IC5 fluorophore acceptor through the cysteines in the GST portion of the fusion protein. There is no biotinylated peptide or Streptavidin-APC in these assays. […] The lower FRET counts could be due to larger distances between the donor and acceptor molecules in the complex. This might be overcome by using direct labeling of the Smad-P complex with Eu-cryptates rather than the Eu-labeled anti-His tag antibody.

[3] = molecular target: Phosphorylated Smad2/4 Complex (Homo sapiens, UniProt Q15796); assay: 96 well microplate solid phase binding assay of GST-CBP to phosphorylated Smad2/4 complex; design: Smad2; 1–467; pBlueBac; His; Smad4; 1–552; Strep; Strep-tag; made in house
Procedure: Table 7, below, tabulates the results of a 96 well Microplate Format Binding Assay of CBP to Smad2 and Phosphorylated Smad2/4 Complex. Duplicate wells are shown with indicated amounts of Smad protein bound per well. Three different dilutions of biotinylated GST-CBP protein were added per well and incubated at room temperture for 1 hour. Wells were washed 3× with TBS+1% tween and Alkaline phosphatase conjugated strepavidin (Tropix) added. Bound conjugate was detected by addition of the CSPD substrate (Tropix) and relative light units (RLU) measured in a Tropix 717 microplate reader at a read time of 1 second per well.

CC[C@H](C)[C@H](NC(=O)[C@H](CC(N)=O)NC(=O)[C@@H](NC(=O)[C@H](CCCNC(=N)N)NC(=O)[C@H](Cc1ccc(O)cc1)NC(=O)[C@H](CC(C)C)NC(=O)[C@H](Cc1c[nH]cn1)NC(=O)[C@H](CCC(N)=O)NC(=O)[C@H](CCC(N)=O)NC(=O)[C@H](CCC(N)=O)NC(=O)[C@H](CCC(N)=O)NC(=O)[C@H](C)NC(=O)[C@H](CCC(=O)O)NC(=O)[C@H](CCCNC(=N)N)NC(=O)[C@H](CCC(=O)O)NC(=O)[C@@H](NC(=O)[C@H](CCC(N)=O)NC(=O)[C@H](CCCNC(=N)N)NC(=O)[C@H](C)NC(=O)[C@H](C)NC(=O)[C@H](CCC(=O)O)NC(=O)[C@@H](NC(=O)[C@H](C)N)C(C)C)[C@@H](C)CC)C(C)C)C(N)=O [CBP] (H-AVEAARQIEREAQQQQHLYRVNI-NH2; N-terminus assumed)
competition for Biotin-FAST binding to Smad-2P (in words) (Smad2-P [1]): inability
competition for binding with the GST-CBP fusion protein (in words) (Smad2-P [2]): can compete
Average Normalized Counts (Smad2-P [2]; 50 μM inhibitor peptide, IC5-GST-CBP binding to Smad2-P): 587
remaining activity at 50 µM (Smad2-P [2]; 50 μM inhibitor peptide, IC5-GST-CBP binding to Smad2-P, read-out: Percent of Control (minus background)): 70%
Average Normalized Counts (Smad2-P [2]; 100 μM inhibitor peptide, IC5-GST-CBP binding to Smad2-P): 478
remaining activity at 100 µM (Smad2-P [2]; 100 μM inhibitor peptide, IC5-GST-CBP binding to Smad2-P, read-out: Percent of Control (minus background)): 51%
IC50 (Smad2-P [2]; read-out: concentration of peptide for 50% inhibition of GST-CBP binding): 100 µM
CBP bound by Smad-P complexes relative to an equivalent amount of unphosphorylated Smad [3]: > 30 fold
